# From ChEMBL document CHEMBL1201862, “PubChem BioAssay data set” (2004)
# Where a name gives a salt, the structure may show the parent alone.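 Test compounds were applied to cells in 96-well plates for 48 hours at 5 doses. Here, GI50 denotes the concentration required for 50% inhibition of growth.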 Activity calls are given as the source filed them. Cut-off read from the data, not from the text of the source: active = GI50 up to about 1.1 µM and inactive = higher.
# Tests used:
# Test in all cases: NCI tumour cell line growth inhibition, 48 h
# IGROV-1 = tested on: IGROV-1
# MOLT-4 = tested on: MOLT-4
# SK-MEL-2 = tested on: SK-MEL-2
# SF-268 = tested on: SF-268
# RPMI-8226 = tested on: RPMI-8226
# HL-60 = tested on: HL-60
# SR = tested on: SR
# SNB-19 = tested on: SNB-19
# EKVX = tested on: EKVX
# UACC-62 = tested on: UACC-62
# UO-31 = tested on: UO-31
# NCI-H226 = tested on: NCI-H226
# RXF 393 = tested on: RXF 393
# HCT-15 = tested on: HCT-15
# CCRF-CEM = tested on: CCRF-CEM
# Hs-578T = tested on: Hs-578T
# HOP-62 = tested on: HOP-62
# SK-MEL-5 = tested on: SK-MEL-5
# NCI-H460 = tested on: NCI-H460
# OVCAR-4 = tested on: OVCAR-4
# SF-295 = tested on: SF-295
# NCI-H522 = tested on: NCI-H522
# BT-549 = tested on: BT-549
# NCI/ADR-RES = tested on: NCI/ADR-RES
# NCI-H23 = tested on: NCI-H23
# OVCAR-8 = tested on: OVCAR-8
# ACHN = tested on: ACHN
# MDA-MB-435 = tested on: MDA-MB-435
# OVCAR-3 = tested on: OVCAR-3
# HCC 2998 = tested on: HCC 2998
# TK-10 = tested on: TK-10
# SF-539 = tested on: SF-539
# SK-MEL-28 = tested on: SK-MEL-28
# MCF7 = tested on: MCF7
# HOP-92 = tested on: HOP-92
# K562 = tested on: K562
# SW-620 = tested on: SW-620
# PC-3 = tested on: PC-3
# SNB-75 = tested on: SNB-75
# A549 = tested on: A549
# SK-OV-3 = tested on: SK-OV-3
# UACC-257 = tested on: UACC-257
# HT-29 = tested on: HT-29
# OVCAR-5 = tested on: OVCAR-5
# KM12 = tested on: KM12
# M14 = tested on: M14
# U-251 = tested on: U-251
# CAKI-1 = tested on: CAKI-1
# SN12C = tested on: SN12C
# MDA-N = tested on: MDA-N
# MDA-MB-231 = tested on: MDA-MB-231
# A498 = tested on: A498
# DU-145 = tested on: DU-145
# LOX IMVI = tested on: LOX IMVI
# COLO 205 = tested on: COLO 205
smiles,measurement,setting,value
O=C1OC(c2ccccc2)=N/C1=C\c1cccnc1,GI50,IGROV-1,> 100 µM (inactive)
same,GI50,MOLT-4,2.84 µM (inactive)
same,GI50,SK-MEL-2,> 100 µM (inactive)
same,GI50,SF-268,> 100 µM (inactive)
same,GI50,RPMI-8226,48.3 µM (inactive)
same,GI50,HL-60,20.7 µM (inactive)
same,GI50,SR,33 µM (inactive)
same,GI50,SNB-19,> 100 µM (inactive)
same,GI50,EKVX,> 100 µM (inactive)
same,GI50,UACC-62,> 100 µM (inactive)
same,GI50,UO-31,> 100 µM (inactive)
same,GI50,NCI-H226,> 100 µM (inactive)
same,GI50,RXF 393,> 100 µM (inactive)
same,GI50,HCT-15,> 100 µM
same,GI50,CCRF-CEM,29.2 µM (inactive)
same,GI50,Hs-578T,> 100 µM (inactive)
same,GI50,HOP-62,> 100 µM (inactive)
same,GI50,SK-MEL-5,> 100 µM (inactive)
same,GI50,NCI-H460,> 100 µM (inactive)
same,GI50,OVCAR-4,> 100 µM (inactive)
same,GI50,SF-295,> 100 µM (inactive)
same,GI50,NCI-H522,> 100 µM (inactive)
same,GI50,BT-549,59.8 µM (inactive)
same,GI50,NCI/ADR-RES,> 100 µM (inactive)
same,GI50,NCI-H23,> 100 µM (inactive)
same,GI50,OVCAR-8,> 100 µM (inactive)
same,GI50,ACHN,> 100 µM (inactive)
same,GI50,MDA-MB-435,> 100 µM (inactive)
same,GI50,OVCAR-3,> 100 µM (inactive)
same,GI50,HCC 2998,> 100 µM (inactive)
same,GI50,TK-10,> 100 µM (inactive)
same,GI50,SF-539,> 100 µM (inactive)
same,GI50,SK-MEL-28,> 100 µM (inactive)
same,GI50,MCF7,> 100 µM (inactive)
same,GI50,HOP-92,> 100 µM (inactive)
same,GI50,K562,34.8 µM (inactive)
same,GI50,SW-620,> 100 µM (inactive)
same,GI50,PC-3,> 100 µM (inactive)
same,GI50,SNB-75,> 100 µM (inactive)
same,GI50,A549,> 100 µM (inactive)
same,GI50,SK-OV-3,> 100 µM (inactive)
same,GI50,UACC-257,> 100 µM (inactive)
same,GI50,HT-29,> 100 µM (inactive)
same,GI50,OVCAR-5,> 100 µM (inactive)
same,GI50,KM12,> 100 µM (inactive)
same,GI50,M14,> 100 µM (inactive)
same,GI50,U-251,> 100 µM (inactive)
CC1(C)/C(=N\O)C2(OS(=O)(=O)C(F)(F)F)CCC1C2 (stereo not drawn),GI50,CAKI-1,> 100 µM (inactive)
same,GI50,MOLT-4,> 100 µM (inactive)
same,GI50,SN12C,> 100 µM (inactive)
same,GI50,SF-268,> 100 µM (inactive)
same,GI50,RPMI-8226,27.4 µM (inactive)
same,GI50,HL-60,12 µM (inactive)
same,GI50,SR,55.1 µM (inactive)
same,GI50,SNB-19,> 100 µM (inactive)
same,GI50,EKVX,> 100 µM (inactive)
same,GI50,UACC-62,> 100 µM (inactive)
same,GI50,UO-31,> 100 µM (inactive)
same,GI50,NCI-H226,70.8 µM (inactive)
same,GI50,HCT-15,> 100 µM
same,GI50,CCRF-CEM,> 100 µM (inactive)
same,GI50,NCI-H460,> 100 µM (inactive)
same,GI50,OVCAR-4,> 100 µM (inactive)
same,GI50,BT-549,> 100 µM (inactive)
same,GI50,NCI/ADR-RES,> 100 µM (inactive)
same,GI50,NCI-H23,> 100 µM (inactive)
same,GI50,OVCAR-8,> 100 µM (inactive)
same,GI50,ACHN,> 100 µM (inactive)
same,GI50,MDA-MB-435,60.1 µM (inactive)
same,GI50,HCC 2998,> 100 µM (inactive)
same,GI50,TK-10,> 100 µM (inactive)
same,GI50,SK-MEL-28,> 100 µM (inactive)
same,GI50,HOP-92,> 100 µM (inactive)
same,GI50,MDA-N,> 100 µM (inactive)
same,GI50,SNB-75,> 100 µM (inactive)
same,GI50,UACC-257,> 100 µM (inactive)
same,GI50,KM12,> 100 µM (inactive)
same,GI50,MDA-MB-231,> 100 µM (inactive)
same,GI50,A498,> 100 µM (inactive)
same,GI50,U-251,> 100 µM (inactive)
Cn1c2nc3ccccc3c-2cc2ccccc21 [NEOCRYPTOLEPINE HYDROCHLORIDE],GI50,IGROV-1,4.6 µM (inactive)
same,GI50,HL-60,3.62 µM (inactive)
same,GI50,SR,2.93 µM (inactive)
same,GI50,EKVX,3.98 µM (inactive)
same,GI50,CCRF-CEM,4.4 µM (inactive)
same,GI50,NCI-H460,3.29 µM (inactive)
same,GI50,SF-295,6.34 µM (inactive)
same,GI50,MDA-MB-435,5.65 µM (inactive)
same,GI50,OVCAR-3,6.4 µM (inactive)
same,GI50,DU-145,12.8 µM (inactive)
same,GI50,SF-539,5.74 µM (inactive)
same,GI50,MCF7,3.21 µM (inactive)
same,GI50,K562,4.3 µM (inactive)
same,GI50,SW-620,5.79 µM (inactive)
same,GI50,PC-3,5.45 µM (inactive)
same,GI50,LOX IMVI,5.07 µM (inactive)
same,GI50,HT-29,4.69 µM (inactive)
same,GI50,COLO 205,2.76 µM (inactive)
